Laboratory results: US20200216441A1, “PESTICIDALLY ACTIVE HETEROCYCLIC DERIVATIVES WITH SULFUR CONTAINING SUBSTITUENTS” (SYNGENTA PARTICIPATIONS AG, priority 2017, published 2020)

How the values were obtained:
[1] = system: Frankliniella occidentalis (Western Flower Thrips); details: foliar, 168 h
[2] = system: Spodoptera littoralis (Egyptian Cotton Leaf Worm); test: Spodoptera littoralis (Egyptian Cotton Leaf Worm), uptake by lettuce roots from agar; format: in vivo; details: 144 h, test rate of 12.5 ppm, compound in agar absorbed by lettuce roots, 6 days after infestation, read-out: effect in at least one of the three categories (mortality, anti-feeding, or growth inhibition)
Excerpt: Example B10: Spodoptera littoralis (Egyptian Cotton Leaf Worm)
Test compounds were applied by pipette from 10′000 ppm DMSO stock solutions into 24-well plates and mixed with agar. Lettuce seeds were placed onto the agar and the multi well plate was closed by another plate which contained also agar. After 7 days the compound was absorbed by the roots and the lettuce grew into the lid plate. The lettuce leaves were then cut off into the lid plate. Spodoptera eggs were pipetted through a plastic stencil onto a humid gel blotting paper and the lid plate was closed with it.

[3] = system: Spodoptera littoralis (Egyptian Cotton Leaf Worm); test: whole plant or invertebrate; details: in Gossypium barbadense, foliar, 72 h, read-out: control (mortality, anti-feeding effect, growth inhibition)
[4] = system: Myzus persicae (Green Peach Aphid); test: whole plant or invertebrate; details: foliar, 144 h
[5] = system: Myzus persicae (Green Peach Aphid); test: whole plant or invertebrate; format: in vivo; details: 144 h, test rate of 24 ppm, systemic, roots of infested pea seedlings in test solution, 6 days
[6] = system: Tetranychus urticae (Two-Spotted Spider Mite); details: foliar, 192 h
[7] = system: Bemisia tabaci (Cotton White Fly); details: in Gossypium hirsutum, foliar, 144 h
[8] = system: Euschistus heros (Neotropical Brown Stink Bug); test: whole plant or invertebrate; format: in vivo; details: 120 h, application rate of 200 ppm, N2 nymphs on sprayed soybean leaves, 5 days after infestation, read-out: effect in at least one of the two categories (mortality or growth inhibition)
[9] = system: Diabrotica Balteata (Corn Root Worm); test: Diabrotica balteata (Corn Root Worm); details: in Zea mays, 96 h, read-out: effect in at least one of the two categories (mortality or growth inhibition)
[10] = system: Plutella xylostella (Diamond Back Moth); test: whole plant or invertebrate; format: in vivo; details: 120 h, application rate of 200 ppm, L2 larvae on treated artificial diet, 5 days after infestation, read-out: effect in at least one of the two categories (mortality or growth inhibition)
[11] = system: Myzus persicae (Green Peach Aphid); test: Myzus persicae (Green Peach Aphid). Intrinsic Activity; details: 120 h

CCS(=O)(=O)c1cc(OC(C)(C)C#N)cnc1-c1nc2cc(C(F)(F)F)ncc2n1C [Compound P18, 2-[[5-ethylsulfonyl-6-[3-methyl-6-(trifluoromethyl)imidazo[4,5-c]pyridin-2-yl]-3-pyridyl]oxy]-2-methyl-propanenitrile]
≥ 80%: mortality at 200 ppm [1] | percent effect (mortality, anti-feeding or growth inhibition) at 12.5 ppm [2] | mortality at 200 ppm [3] | mortality at 200 ppm [4] | mortality at 24 ppm [5] | mortality at 200 ppm [6] | mortality at 200 ppm [7] | percent effect (mortality or growth inhibition) at 200 ppm [8] | mortality at 200 ppm [9] | percent effect (mortality or growth inhibition) at 200 ppm [10]

CCSc1cc(OC(C)(C)C#N)cnc1-c1nc2cc(C(F)(F)F)ncc2n1C [Compound P19, 2-[[5-ethylsulfanyl-6-[3-methyl-6-(trifluoromethyl)imidazo[4,5-c]pyridin-2-yl]-3-pyridyl]oxy]-2-methyl-propanenitrile]
≥ 80%: mortality at 200 ppm [3] | mortality at 200 ppm [4] | mortality at 200 ppm [6] | mortality at 200 ppm [7] | percent effect (mortality or growth inhibition) at 200 ppm [8] | mortality at 200 ppm [9] | mortality at 12 ppm [11] | percent effect (mortality or growth inhibition) at 200 ppm [10]
